Test results: patent publication US10150747B2, “Compounds for the treatment of hepatitis C” (BRISTOL-MYERS SQUIBB COMPANY, priority 2015, dated 2018)

Tests used:
[1] = molecular target: HCV NS5B genotype 1b (Con1) (Hepatitis C virus genotype 1b (isolate Con1) (HCV), UniProt Q9WMX2); test: HCV NS5B RdRp enzyme assay (1b enzyme); assay type: biochemical; settings: genotype 1b NS5B enzyme
Method: HCV NS5B RdRp Cloning, Expression, and Purification.
The cDNA encoding NS5B proteins of HCV genotype 1b (Con1), a genotype 1b variant with amino acid 316 mutated from cysteine to asparagine, and genotype 2a (JFH-1), were cloned into the pET21a expression vector. Each untagged protein was expressed with an 18 amino acid C-terminal truncation to enhance the solubility. The E. coli competent cell line BL21(DE3) was used for expression of the protein. Cultures were grown at 37° C. for ˜4 hours until the cultures reached an optical density of 2.0 at 600 nm. The cultures were cooled to 20° C. and induced with 1 mM IPTG. Fresh ampicillin was added to a final concentration of 50 μg/mL and the cells were grown overnight at 20° C.
The lysis buffer consisted of 20 mM Tris-HCl, pH 7.4, 500 mM NaCl, 0.5% triton X-100, 1 mM DTT, 1 mM EDTA, 20% glycerol, 0.5 mg/mL lysozyme, 10 mM MgCl2, 15 ug/mL deoxyribonuclease I, and Complete TM protease inhibitor tablets (Roche). After addition of the lysis buffer, frozen cell pellets were resuspended using a tissue homogenizer. To reduce the viscosity of the sample, aliquots of the lysate were sonicated on ice using a microtip attached to a Branson sonicator. The sonicated lysate was centrifuged at 100,000×g for 30 minutes at 4° C. and filtered through a 0.2 μm filter unit (Corning).
The protein was purified using two sequential chromatography steps: Heparin sepharose CL-6B and polyU sepharose 4B. The chromatography buffers were identical to the lysis buffer but contained no lysozyme, deoxyribonuclease I, MgCl2 or protease inhibitor and the NaCl concentration of the buffer was adjusted according to the requirements for charging the protein onto the column. Each column was eluted with a NaCl gradient which varied in length from 5-50 column volumes depending on the column type. […] The enzyme was aliquoted and stored at −80° C.
HCV NS5B RdRp Enzyme Assay.
An on-bead solid phase homogeneous assay was used in a 384-well format to assess NS5B inhibitors (WangY-K, Rigat K, Roberts S, and Gao M (2006) Anal Biochem, 359: 106-111). The biotinylated oligo dT12 primer was captured on streptavidin-coupled imaging beads (GE, RPNQ0261) by mixing primer and beads in 1× buffer and incubating at room temperature for three hours. Unbound primer was removed after centrifugation. The primer-bound beads were resuspended in 3× reaction mix (20 mM Hepes buffer, pH 7.5, dT primer coupled beads, poly A template, ^3H-UTP, and RNAse inhibitor (Promega N2515)). Compounds were serially diluted 1:3 in DMSO and aliquoted into assay plates. Equal volumes (5 μL) of water, 3× reaction mix, and enzyme in 3× assay buffer (60 mM Hepes buffer, pH 7.5, 7.5 mM MgCl2, 7.5 mM KCl, 3 mM DTT, 0.03 mg/mL BSA, 6% glycerol) were added to the diluted compound on the assay plate. Final concentration of components in 384-well assay: 0.36 nM template, 15 nM primer, 0.29 μM ^3H-UTP (0.3 μCi), 1.6 U/4 RNAse inhibitor, 7 nM NS5B enzyme, 0.01 mg/mL BSA, 1 mM DTT, and 0.33 μg/μL beads, 20 mM Hepes buffer, pH 7.5, 2.5 mM MgCl2, 2.5 mM KCl, and 0.1% DMSO.
Reactions were allowed to proceed for 24 hours at 30° C. and terminated by the addition of 50 mM EDTA (5 μL). After incubating for at least 15 minutes, plates were read on an Amersham LEADseeker multimodality imaging system.
IC50 values for compounds were determined using ten different [I]. IC50 values were calculated from the inhibition using the four-parameter logistic formula y=A+((B−A)/(1+((C/x)^D))), where A and B denote minimal and maximal % inhibition, respectively, C is the IC50, D is hill slope and x represents compound concentration.

[2] = test system: genotype 1b (Con-1) HCV replicon in Huh-7 cells; test: HCV replicon luciferase assay (1b replicon); assay type: cell-based; settings: Hepatitis C virus, 72 h; genotype 1b replicon, Huh-7, Renilla luciferase, 3 days incubation; read-out: EC50
Method: The cell lines used to evaluate compounds consist of a human hepatocyte derived cell line (Huh-7) that constitutively expresses a genotype 1b (Con-1) HCV replicon or a genotype 1b (Con-1) HCV replicon with an asparagine replacing the cysteine at amino acid 316, or a genotype 2a (JFH-1) replicon, containing a Renilla luciferase reporter gene. These cells were maintained in Dulbecco's modified Eagle medium (DMEM) containing 10% FBS, 100 U/mL penicillin/streptomycin and 1.0 mg/mL G418.
HCV Replicon Luciferase Assay.
After 3 days incubation at 37° C., cells were analyzed for Renilla Luciferase activity using the EnduRen substrate (Promega cat #E6485) according to the manufacturer's directions. Briefly, the EnduRen substrate was diluted in DMEM and then added to the plates to a final concentration of 7.5 μM. The plates were incubated for at least 1 h at 37° C. then read on a Viewlux Imager (PerkinElmer) using a luminescence program.

HCV = settings: extended dosing of the combination regimens with interferon and ribavirin; cited from earlier work

Chain of HCV NS5B genotype 1b (Con1) (Q9WMX2 2420-2992): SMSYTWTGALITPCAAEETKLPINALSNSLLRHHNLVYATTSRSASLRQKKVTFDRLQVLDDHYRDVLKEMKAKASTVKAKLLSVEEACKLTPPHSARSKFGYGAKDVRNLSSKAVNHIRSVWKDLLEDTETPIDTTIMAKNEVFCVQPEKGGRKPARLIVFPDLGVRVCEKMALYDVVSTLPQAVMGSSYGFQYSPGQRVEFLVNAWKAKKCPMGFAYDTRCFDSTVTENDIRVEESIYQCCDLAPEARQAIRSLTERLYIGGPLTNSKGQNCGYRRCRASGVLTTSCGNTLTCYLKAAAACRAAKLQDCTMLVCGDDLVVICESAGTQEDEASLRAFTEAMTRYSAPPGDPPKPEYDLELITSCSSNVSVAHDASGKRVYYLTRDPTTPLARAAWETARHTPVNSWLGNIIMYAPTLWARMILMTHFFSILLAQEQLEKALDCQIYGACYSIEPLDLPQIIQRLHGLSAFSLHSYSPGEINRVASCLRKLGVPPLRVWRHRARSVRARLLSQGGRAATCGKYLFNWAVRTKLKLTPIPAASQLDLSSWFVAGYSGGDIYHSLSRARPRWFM

Which IC50 [1] does the source give for CNC(=O)c1c(-c2ccc(F)cc2)oc2cc(OCC(F)(F)F)c(-c3cccc(C(=O)NC(C)(C)c4ncon4)c3)cc12 [Example 21, 5-(3-((2-(1,2,4-oxadiazol-3-yl)propan-2-yl)carbamoyl)phenyl)-2-(4-fluorophenyl)-N-methyl-6-(2,2,2-trifluoroethoxy)benzofuran-3-carboxamide] here?
The IC50 was 4.49 nM.

What about the EC50 [2] of the same compound?
The EC50 was 10 nM.

What does the source list for CNC(=O)c1c(-c2ccc(F)cc2)oc2cc(OC(C)C)c(-c3ccc(OC)c(C(=O)NC(C)(C)c4ncon4)c3)cc12 [Example 23, 5-(3-((2-(1,2,4-Oxadiazol-3-yl)propan-2-yl)carbamoyl)-4-methoxyphenyl)-2-(4-fluorophenyl)-6-isopropoxy-N-methylbenzofuran-3-carboxamide]?
IC50 [1]: 7.14 nM; EC50 [2]: 10 nM

With CCOc1cc2oc(-c3ccc(F)cc3)c(C(=O)NC)c2cc1-c1ccc(CC)c(C(=O)NC(C)(C)c2ncon2)c1 [Example 24, 5-(3-((2-(1,2,4-oxadiazol-3-yl)propan-2-yl)carbamoyl)-4-ethylphenyl)-6-ethoxy-2-(4-fluorophenyl)-N-methylbenzofuran-3-carboxamide] as the compound, how does the IC50 [1] read?
The IC50 was greater than 2500 nM.

What about the EC50 [2] of the same compound?
Its EC50 is 280 nM.

What does the source list for CCCOc1cc2oc(-c3ccc(F)cc3)c(C(=O)NC)c2cc1-c1ccc(OC)c(C(=O)NC(C)(C)c2ncon2)c1 [Example 25, 5-(3-((2-(1,2,4-oxadiazol-3-yl)propan-2-yl)carbamoyl)-4-methoxyphenyl)-2-(4-fluorophenyl)-N-methyl-6-propoxybenzofuran-3-carboxamide]?
IC50 [1]: 2.48 nM; EC50 [2]: 6.23 nM

Which IC50 [1] does the source give for CNC(=O)c1c(-c2ccc(F)cc2)oc2cc(OCC(C)C)c(-c3ccc(OC)c(C(=O)NC(C)(C)c4ncon4)c3)cc12 [Example 26, 5-(3-((2-(1,2,4-oxadiazol-3-yl)propan-2-yl)carbamoyl)-4-methoxyphenyl)-2-(4-fluorophenyl)-6-isobutoxy-N-methylbenzofuran-3-carboxamide] here?
Its IC50 is 30 nM.

And the EC50 [2]?
The EC50 was 80 nM.

For [2H]C([2H])([2H])Oc1ccc(-c2cc3c(C(=O)NC)c(-c4ccc(F)cc4)oc3cc2OCC)cc1C(=O)NC(C)(C)C#N [Example 28, 5-(3-((2-cyanopropan-2-yl)carbamoyl)-4-(methoxy-d3)phenyl)-6-ethoxy-2-(4-fluorophenyl)-N-methylbenzofuran-3-carboxamide], which IC50 [1] is on record?
The IC50 was 2.04 nM.

What about the EC50 [2] of the same compound?
The EC50 was 2.01 nM.

For CNC(=O)c1c(-c2ccc(F)cc2)oc2cc(OCC(F)(F)F)c(-c3cnc(OC)c(C(=O)NC4(c5ncccn5)CC4)c3)cc12 [Example 29, 5-(2-(4-Fluorophenyl)-3-(methylcarbamoyl)-6-(2,2,2-trifluoroethoxy)benzofuran-5-yl)-2-methoxy-N-(1-(pyrimidin-2-yl)cyclopropyl)nicotinamide], which IC50 [1] is on record?
Its IC50 is 2.95 nM.

What about the EC50 [2] of the same compound?
Its EC50 is 4.57 nM.

Which IC50 [1] does the source give for CCOc1cc2oc(-c3ccc(F)cc3)c(C(=O)NC)c2cc1-c1cccc(C(=O)NC(C)(C)c2nc3ccncc3[nH]2)c1 [Example 32, 5-(3-((2-(3H-imidazo[4,5-c]pyridin-2-yl)propan-2-yl)carbamoyl)phenyl)-6-ethoxy-2-(4-fluorophenyl)-N-methylbenzofuran-3-carboxamide] here?
The IC50 was 6.01 nM.

And the EC50 [2]?
The EC50 was 10 nM.

For [2H]C([2H])([2H])Oc1ccc(-c2cc3c(C(=O)NC)c(-c4ccc(F)cc4)oc3cc2OCC)cc1C(=O)NC(C)(C)c1ncsn1 [Example 33, 5-(3-((2-(1,2,4-thiadiazol-3-yl)propan-2-yl)carbamoyl)-4-(methoxy-d3)phenyl)-6-ethoxy-2-(4-fluorophenyl)-N-methylbenzofuran-3-carboxamide], which IC50 [1] is on record?
Its IC50 is 2.04 nM.

What about the EC50 [2] of the same compound?
The EC50 was 2.49 nM.

Which IC50 [1] does the source give for CNC(=O)c1c(-c2ccc(F)cc2)oc2cc(OCCO)c(-c3ccc(OC)c(C(=O)NC(C)(C)c4ncon4)c3)cc12 [Example 34, 5-(3-((2-(1,2,4-Oxadiazol-3-yl)propan-2-yl)carbamoyl)-4-methoxyphenyl)-2-(4-fluorophenyl)-6-(2-hydroxyethoxy)-N-methylbenzofuran-3-carboxamide] here?
The IC50 was 3.89 nM.

What about the EC50 [2] of the same compound?
The EC50 was 8.31 nM.

Which hepatic toxicity (HCV) does the source give for CNC(=O)c1c(-c2ccc(F)cc2)oc2cc(N(CCO)S(C)(=O)=O)c(C3CC3)cc12 [HCV-796] here?
The hepatic toxicity was “hepatic toxicity”.
